Experimental data taken from patent US7585843B2, “Treatment of demyelinating autoimmune disease with modified ordered peptides” (Bayhill Therapeutics, Inc., priority 2003, dated 2009).
Entries after “also recorded” stand apart in the source; their conditions may differ. Where two headings read alike, the source gives them in different places. Non-standard residues stand in square brackets, D forms with d. No end group written: not given here.

Experiments:
mouse MHC class II = experiment: Blocking of native peptide binding to MHC by FACS (FIG. 3), mouse; conditions: biotinylated peptide on spleen APCs
Experimental: (§1) The ability of MBP therapeutic ordered peptide EYYKEYYKEYYK, substituted MBP therapeutic ordered peptide D-Ala-EYYKEYYKEYYK-amide, or Copaxone to block the binding of the native peptide to either a mouse or rat MHC was measured by FACS analysis.
(§2) Peptide binding to class II molecules was measured as follows. Briefly, APCs (antigen presenting cells) were purified from spleen cells by negative selection using magnetic beads (Dynal, Oslo, Norway) conjugated with antibodies specific for T cells (CD52), macrophages (CD45R), and NK cells (NKR-P1A) (Pharmingen, San Diego, Calif.). After selection, cells were plated at a concentration of 0.5×10^6 cells per well in flat bottom 96 well microtiter plates (Costar, Corning, N.Y.). Therapeutic ordered peptides were used as inhibitors are added to the wells at different concentrations (ranging from 0.01 to 0.24 mM) in a volume of 0.05 ml. After an hour of incubation at 37° C., 0.01 mM of biotinylated MBP, MOG, or PLP peptide was added. After four more hours of incubation, cells were harvested and binding of PE-Avidin to the cell surface was analyzed by FACS (Becton Dickinson, San Jose, Calif.). To determine the IC50 value of the therapeutic ordered peptide, for example EYYK, a linear regression curve was calculated using data points from 0.01 mM to […].

EAE in Lewis rats [1] = experiment: Blocking of EAE induction in Lewis rats, peptide mixed into encephalitogenic emulsion (FIG. 5); assay type: in vivo, rat; conditions: 0.5 mg mixed into MBPp85-99/CFA emulsion, 12-13 animals
Experimental: FIG. 5 is a graph showing the blocking of induction of EAE by the substituted D-Ala form of the therapeutic ordered peptide. Lewis rats were injected with an emulsion of 0.1 mg of MBPp85-99 in complete Freund's adjuvant for EAE induction. Either of 0.5 mg MBP therapeutic ordered peptide EYYKEYYKEYYK, substituted MBP therapeutic ordered peptide D-Ala-EYYKEYYKEYYK-amide, or Copaxone was mixed into the encephalitogenic emulsion. Results are expressed as mean disease score of 12-13 animals.
(§3) EAE induction. Synthetic peptide MBPp85-99 was dissolved in PBS to a concentration of 2 mg/ml and emulsified with and equal volume of Incomplete Freund's Adjuvant (IFA), supplemented with 4 mg/ml heat-killed Mycobacterium tuberculosis H37Ra (Difco Laboratories, Detroit, Mich.). Rats were injected subcutaneously with 0.1 ml of the peptide emulsion. Experimental animals were scored as follows: 0, no clinical disease; 1, tail weakness or paralysis; 2, hind limb weakness; 3, hind limb paralysis; 4, forelimb weakness or paralysis; 5, moribund or dead animal.
The ability of therapeutic ordered peptide EYYKEYYKEYYK, modified therapeutic ordered peptide D-Ala-EYYKEYYKEYYK-amide, or Copaxone to treat a rat model of EAE was tested. A single 0.5 mg dose of each of these peptides was administered along with the encephalitogen (MBP 85-99 peptide in CFA) as an emulsion.

[2] = system: PLPp139-151 specific T cell line; experiment: T cell proliferation assay (FIG. 4); assay type: cell-based
Experimental: FIG. 4 is a graph showing the blocking by the therapeutic ordered peptide of T cell proliferation. The ability of MBP therapeutic ordered peptide (EYYKEYYKEYYK), substituted MBP therapeutic ordered peptide (D-Ala-EYYKEYYKEYYK-amide), or Copaxone to block the proliferation of a PLPp139-151 specific T cell line was measured in a proliferation assay.
The ability of therapeutic ordered peptide EYYKEYYKEYYK, modified therapeutic ordered peptide D-Ala-EYYKEYYKEYYK-amide, or Copaxone to block the proliferation of a PLPp139-151 specific T cell line was measured in a proliferation assay.

[3] = system: T cell lines from immunized mice; experiment: Cytokine production by T cell lines from immunized mice (FIG. 6); assay type: cell-based; conditions: T cell lines from mice immunized with the antigen
Source text: OVA is known to cause an induction of Th1 type of T cells after immunization.
One of the mechanisms proposed for the efficacy of Copaxone in MS is the induction of Th2 type of antigen-specific T cells that are beneficial in treating the disease process.
In a similar protocol we immunized mice with D-ala modified ordered peptide, non-modified ordered peptide, and control peptides including Cop1 and ovalbumin (OVA). OVA is known to cause an induction of Th1 type of T cells after immunization.

rat MHC class II = experiment: Blocking of native peptide binding to MHC by FACS (FIG. 3), rat; conditions: biotinylated peptide on spleen APCs
Experimental: as §1, §2

[4] = system: anti-MBP antibodies affinity-purified from CNS lesions; experiment: Inhibition of autoantibody binding to MBP; parameters: species or system human; conditions: antibodies from CNS lesions of 12 post-mortem MS cases
Source text: Previously, we have compared the structural requirements for autoantibody recognition to those of T cell clones reactive to MBP p87-99. Anti-MBP antibodies were affinity-purified from CNS lesions of 12 post-mortem cases studied. The MBP p87-99 peptide was immunodominant in all cases and it inhibited autoantibody binding to MBP by more than 95%. Residues contributing to autoantibody binding were located in a 10-amino acid segment p86-95 ({SEQ ID NO:9} VVHFFKNIVT) that also contained the MHC-T cell receptor contact residues for T cells recognizing MBP in the context of DRB1*1501 and DQB1*0602. In the epitope center, the same residues, {SEQ ID NO:10} VHFFK, were important for T cell binding and MHC recognition. Recently, the crystal structure of HLA-DR2 with MBPp85-99 was solved, confirming the prediction that K91 is the major TCR contact residue, while F90 is a major anchor into the hydrophobic P4 pocket of the MHC molecule.

EAE in Lewis rats [5] = experiment: EAE treatment in Lewis rats, single dose at disease onset (FIG. 1); assay type: in vivo, rat; conditions: MBPp85-99-induced EAE, single intraperitoneal dose 0.5 mg in PBS at disease onset (day 10)
Experimental: FIG. 1 is a graph showing the prevention of EAE in rats treated with therapeutic ordered peptides. […] Animals were injected with an emulsion of 0.1 mg of MBPp85-99 in complete Freund's adjuvant for EAE induction. Ten days later, when the clinical manifestations of disease became apparent, a single intra-peritoneal dose of MBP therapeutic ordered peptide {SEQ ID NO:4} EYYKEYYKEYYK (squares), {SEQ ID NO:5} KYYKYYKYYKYY (triangles), or PBS (circles)was administered. Results are expressed as mean disease score of groups of six animals.
Animals. Female Lewis rats (6-8 weeks old), were purchased from Harlan Sprague Dawley (Indianapolis, Ind.)
as §3
EAE treatment. Rats previously immunized with MBPp85-99 for EAE induction were scored from day eight after peptide injection. […]

EAE in mice = experiment: Relapse rates in mice with ongoing EAE induced with PLPp139-151 (FIG. 2); assay type: in vivo; conditions: PLPp139-151-induced EAE; treated days 17, 29, 36; i.v., i.p. or s.c.; 0.5 or 0.05 mg per mouse; in mannitol
Experimental: FIG. 2 is a graph depicting the reduction in relapse rates in mice with EAE treated with ordered peptides. Animals were induced for EAE with an emulsion of 0.1 mg of PLPp139-151 in complete Freund's adjuvant (day 0). Mice were randomized into equal groups at the peak of disease and were treated at days 17, 29, and 36 after EAE induction with intravenous, intra-peritoneal or subcutaneous administration of EYYKEYYKEYYK (MBP therapeutic ordered peptide) or Copaxone at two different dosages, 0.5 mg per mouse or 0.05 mg per mouse. Both the MBP therapeutic ordered peptide and Copaxone were dissolved in mannitol.
Injection of ordered peptides containing TCR-MHC binding motifs reverse the development of EAE. In order to test the potential of the predicted sequences to revert the development of ongoing EAE we delivered a single dose of a PBS solution containing 0.5 mg of peptide in 0.25 ml. […] In addition, ordered peptide treatment was administered in a mouse model of ongoing-EAE (FIG. 2) at days 17, 29, and 36 after EAE induction with intravenous, intra-peritoneal or subcutaneous administration of EYYKEYYKEYYK (therapeutic ordered peptide) or Copaxone at two different dosages, 0.5 mg per mouse or 0.05 mg per mouse. Both the therapeutic ordered peptide and Copaxone were dissolved in mannitol.

D-Ala-EYYKEYYKEYYK-amide ([dA]EYYKEYYKEYYK-NH2; N-terminus assumed; SMILES C[C@@H](N)C(=O)N[C@@H](CCC(=O)O)C(=O)N[C@@H](Cc1ccc(O)cc1)C(=O)N[C@@H](Cc1ccc(O)cc1)C(=O)N[C@@H](CCCCN)C(=O)N[C@@H](CCC(=O)O)C(=O)N[C@@H](Cc1ccc(O)cc1)C(=O)N[C@@H](Cc1ccc(O)cc1)C(=O)N[C@@H](CCCCN)C(=O)N[C@@H](CCC(=O)O)C(=O)N[C@@H](Cc1ccc(O)cc1)C(=O)N[C@@H](Cc1ccc(O)cc1)C(=O)N[C@@H](CCCCN)C(N)=O) [substituted (modified) MBP therapeutic ordered peptide]
blocking of binding of native PLP peptide to mouse MHC class II (mean fluorescence intensity) (mouse MHC class II): more effective in blocking either MHC than the non-D-ala form | blocking of binding of native PLP peptide to mouse MHC class II (mean fluorescence intensity) (mouse MHC class II; listed as D-Ala EYYK): higher affinity of binding to these MHC's than the unmodified EYYK; also recorded: approaches the binding achieved by Copaxone | blocking of binding of native PLP peptide to mouse MHC class II (mean fluorescence intensity) (mouse MHC class II; listed as D-ala-EYYK): comparable amount of inhibition | blocking of EAE induction, mean disease score (EAE in Lewis rats [1]): more effective in blocking EAE induction than the un-substituted therapeutic ordered peptide; also recorded: superiority of the D-Ala form of the ordered peptide over the non-substituted form; also recorded: nearly reaches the efficacy of Copaxone | reduction in T cell proliferation [2]: dose dependent reduction in T cell proliferation; also recorded: exceeds the reduction in T cell proliferation for either the unmodified ordered peptide or for Copaxone | reduction in T cell proliferation ([2]; listed as D-Ala EYYK): dose dependent reduction in T cell proliferation; also recorded: exceeds the reduction in proliferation with either the unmodified ordered peptide or Copaxone | reduction in T cell proliferation ([2]; listed as D-ala EYYK): more effective in blocking T cell proliferation than the unmodified EYYK | IL4 production [3]: increased production of IL4 and IL10 | IL10 production [3]: increased production of IL4 and IL10 | blocking of binding of native MBP peptide to rat MHC class II (mean fluorescence intensity) (rat MHC class II): more effective in blocking either MHC than the non-D-ala form | blocking of binding of native MBP peptide to rat MHC class II (mean fluorescence intensity) (rat MHC class II; listed as D-Ala EYYK): higher affinity of binding to these MHC's than the unmodified EYYK; also recorded: approaches the binding achieved by Copaxone | blocking of binding of native MBP peptide to rat MHC class II (mean fluorescence intensity) (rat MHC class II; listed as D-ala-EYYK): comparable amount of inhibition

OVA: ovalbumin, control known to cause an induction of Th1 type of T cells after immunization [reference compound]
IL4 production [3]: did not cause an increase in these cytokines | IL10 production [3]: did not cause an increase in these cytokines

MBP p87-99: myelin basic protein peptide 87-99, immunodominant epitope (SRPHLIRLFSRDA; UniProt P02686 87-99, looked up, fragment)
inhibition of autoantibody binding to MBP [4]: more than 95%

EYYKEYYKEYYK [MBP therapeutic ordered peptide, motif [EYYK]n with n=3]
EAE development, mean disease score (EAE in Lewis rats [5]): prevents the development of EAE; also recorded: effective in preventing and treating experimental autoimmune encephalomyelitis | blocking of binding of native PLP peptide to mouse MHC class II (mean fluorescence intensity) (mouse MHC class II): comparable amount of inhibition | relapse rates per mouse (EAE in mice): reduce relapse rates similarly | blocking of binding of native MBP peptide to rat MHC class II (mean fluorescence intensity) (rat MHC class II): comparable amount of inhibition
